The record followed here is the pKa sets of Baltruschat and Czodrowski (2020).

The pKa is the negative logarithm of the acid dissociation constant. Lower therefore signals a stronger acid or weaker base.

In turn, `O=C1CC2(CCCC2)CC(=O)N1CCCCN1CCN(c2ncccn2)CC1` returned a pKa of 7.6.

With `NC(CC(=O)O)C(=O)O` (centres undefined), the pKa was 9.67. As for `CCC1OC(=O)CC(O)C(C)C(OC2OC(C)C(O)C(N(C)C)C2O)C(CC=O)CC(C)C(=O)C=CC(C)=CC1COC1OC(C)C(O)C(OC)C1CC` (centres undefined), the figure is 8.36; as for `CN[C@H]1C(O)O[C@H](CO)[C@@H](O)[C@@H]1O` (some centres undefined), 9.6; as for `NC(Cc1c[nH]c2ccccc12)C(=O)NC(Cc1ccccc1)C(=O)O` (centres undefined), 3.18. Next, `CCN(CC)C(=O)Nc1ccc(OCC(O)CNC)c(C(C)=O)c1` (centres undefined): 9.66; `CC1(C)S[C@@H]2[C@@H](NC(=O)[C@H](N)c3ccc(O)cc3)C(=O)N2[C@H]1C(=O)O`: 2.6. In turn, `CCCN(CCC)S(=O)(=O)c1ccc(C(=O)O)cc1` registered a pKa of 3.01.

As to `CC(C)n1c(/C=C/[C@H](O)C[C@H](O)CC(=O)O)c(-c2ccc(F)cc2)c2ccccc21`, the pKa was 4.31. `Cc1cc(=O)oc2cc(C3OC(C(=O)O)C(O)C(O)C3O)ccc12` (centres undefined) displayed a pKa of 2.82. Next, `CC(C)(C)NCC(O)COc1ccccc1C1CCCC1` (centres undefined): 9.92; `COc1ccccc1OCCNCC(O)COc1cccc2[nH]c3ccccc3c12` (centres undefined): 7.97; `CC[C@H]1OC(=O)[C@@H](C)[C@H](O[C@@H]2C[C@](C)(OC)[C@@H](O)[C@@H](C)O2)[C@@H](C)[C@@H](O[C@@H]2O[C@H](C)C[C@@H](N(C)C)[C@@H]2O)[C@](C)(O)C[C@@H](C)/C(=N/OCOCCOC)[C@@H](C)[C@@H](O)[C@]1(C)O`: 9.27. As for `CC(NC(CCc1ccccc1)C(=O)O)C(=O)N1CCCC1C(=O)O` (centres undefined), the figure is 7.84; as for `C=CCOc1ccccc1OCC(O)CNC(C)C` (centres undefined), 9.57. `COc1ccc([C@@H]2Sc3ccccc3N(CCN(C)C)C(=O)[C@@H]2OC(C)=O)cc1` showed a pKa of 8.02.

`CO[C@H]1[C@@H](O[C@@H]2O[C@H](C)[C@@H](O[C@H]3C[C@@](C)(O)[C@@H](O[C@@H](O)CC(C)C)[C@H](C)O3)[C@@H](N(C)C)[C@H]2O)[C@@H](CCO)C[C@@H](C)[C@H](O)CC[C@@H]2O[C@H]2C[C@@H](C)O[C@@H](O)C[C@H]1O[C@H](C)O` came in with a pKa of 7.61. Next, `CC(C)(C)NCC(O)COc1cccc2c1C[C@H](O)[C@H](O)C2` (some centres undefined): 9.69; `CCC(=O)OC(Cc1ccccc1)(c1ccccc1)C(C)CN(C)C` (centres undefined): 9.06; `CC(=O)Oc1c(C)cc(OCC(O)CNC(C)C)c(C)c1C` (centres undefined): 9.54.

As to `CCOC(=O)[C@H](CCc1ccccc1)N[C@@H](C)C(=O)N1CCC[C@H]1C(=O)O`, the pKa amounted to 2.92. Next, `CCCCC[C@H](O)/C=C/[C@H]1[C@H](CCCCCCC(=O)O)C(=O)C[C@@H]1O`: 4.87; `COC1CC(OC2C(C)C(O)OC(C)C(C)C(O)C(C)C(=O)C3(CO3)CC(C)C(OC3OC(C)CC(N(C)C)C3O)C2C)OC(C)C1O` (centres undefined): 8.84.

For `CN(C)CCCOc1nn(Cc2ccccc2)c2ccccc12`, the pKa came out at 9.27. Next, `NC(Cc1c[nH]c2ccccc12)C(=O)NC(Cc1c[nH]c2ccccc12)C(=O)O` (centres undefined): 3.38; `CCN(CC)CCOC(=O)c1ccc(N)cc1`: 9.04.

Consider `CN(C)CCC=C1c2ccccc2CCc2ccccc21`, for which the pKa turned out to be 9.49. Next, `COc1ccc2c3c1O[C@H]1[C@@H](O)C=C[C@H]4[C@@H](C2)NCC[C@@]341`: 9.23; `CCCCC[C@H](O)/C=C/[C@H]1[C@H](C/C=C/CCCC(=O)O)C(=O)C[C@@H]1O`: 4.77. Next, `CC(C(=O)O)c1ccc(-c2ccccc2)c(F)c1` (centres undefined): 4.03; `CCC1OC(=O)CC(O)C(C)C(CC=O)(OC2OC(C)CC(N(C)C)C2O)CC(C)C(=O)C=CC(C)=CC1C` (centres undefined): 8.83; `CC(C)(C)c1ccc(C(O)CCCN2CCC(C(O)(c3ccccc3)c3ccccc3)CC2)cc1` (centres undefined): 9.86. Next, `CC(C)(C)NC[C@H](O)COc1nsnc1N1CCOCC1`: 9.53; `CCC1OC(=O)CC(O)CC(OC2OC(C)CC(N(C)C)C2O)C(CC=O)CC(C)C(=O)C=CC2OC2C1C` (centres undefined): 8.79; `CCC1OC(=O)CC(O)C(C)C(OC2OC(C)C(OC3CC(C)(O)C(O)C(C)O3)C(N(C)C)C2O)C(CC=O)CC(C)C(=O)C=CC(C)=CC1COC1OC(C)C(O)C(OC)C1CC` (centres undefined): 7.73. Take `COC1C(OC(C)=O)CC(=O)OC(C)CC2OC2/C=C/C(=O)C(C)CC(CC=O)C1OC1OC(C)C(O)C(N(C)C)C1O` (centres undefined): the pKa came out at 8.44. Next, `CN(C)CCOC1(c2ccccc2)CC2CCC1(C)C2(C)C` (centres undefined): 9.61.

In turn, `CC(C)NCC(O)COc1cccc2[nH]c3ccccc3c12` (centres undefined) came in with a pKa of 9.52.

For the molecule `CC(Cc1ccc(C(C)(C)C)cc1)CN1CC(C)OC(C)C1` (centres undefined), the pKa came to 7.34.

Molecule `CC(C)NCC(O)COc1ccc(COCCOC(C)C)cc1` (centres undefined) came in with a pKa of 9.57. For the molecule `CC[C@H]1OC(=O)[C@@H](C)[C@H](O[C@H]2C[C@](C)(OC)[C@H](O)[C@@H](C)O2)[C@@H](C)[C@@H](O[C@@H]2O[C@H](C)C[C@@H](N(C)C)[C@@H]2O)[C@](C)(O)C[C@@H](C)C(=O)[C@@H](C)[C@@H](O)[C@]1(C)O`, the pKa stood at 8.8. Regarding `CN/C(=C\[N+](=O)[O-])NCCSCc1ccc(CN(C)C)o1`, the pKa was determined as 8.31. As for `N#Cc1ccc2c(c1)N(CCCCN1CCC(O)CC1)c1ccccc1S2`, the figure is 8.76. As for `CCN(C)C(=O)Oc1cccc(C(C)N(C)C)c1` (centres undefined), the figure is 8.8.
